Measured values as given in ChEMBL document CHEMBL3885861, “Open TG-GATES”.

Organism: Rattus norvegicus
Assay: Open TG-GATES - Regimen: Daily Repeat
Assay type: toxicity, organism-based, Sprague-Dawley
Design: regimen Daily Repeat, gender Male, age 6 weeks
Conditions: in vivo, po, 0 mg/kg, route gavage, dose level Control; for APTT / Bas / Eos / Fbg / Hb / Ht / Lym / MCH / MCHC / MCV / Mono / Neu / PT / Plat / RBC / Ret / WBC: tissue Blood; for KIDNEY_L / KIDNEY_R / KIDNEY_TOTAL: tissue Kidney; for LIVER: tissue Liver; for A/G / ALP / ALT / AST / BUN / CRE / Ca / Cl / DBIL / GLC / IP / K / LDH / Na / PL / RALB / TBIL / TC / TG / TP / gamma-GTP: tissue Plasma

With Cn1cnc([N+](=O)[O-])c1Sc1ncnc2nc[nH]c12 [AZATHIOPRINE] the TERMINAL_BW (72 h, time 3 day) was 200.7 g, the APTT (72 h, time 3 day) was 21.5 s and the Bas (72 h, time 3 day) was 0%. For the same compound, the Eos (72 h, time 3 day) was 0.8%, the Fbg (72 h, time 3 day) was 305.2 mg/dL and the Hb (72 h, time 3 day) was 13.5 g/dL. For the same compound, the Ht (72 h, time 3 day) was 39.8%, the Lym (72 h, time 3 day) was 80.4% and the MCH (72 h, time 3 day) was 21.4 pg. The MCHC (72 h, time 3 day) was 33.8%, the MCV (72 h, time 3 day) was 63.1 fL and the Mono (72 h, time 3 day) was 2.2%. It also gave a Neu (72 h, time 3 day) of 15.4%, a PT (72 h, time 3 day) of 16.3 s and a Plat (72 h, time 3 day) of 129.4 x10_4/uL. For the same compound, the RBC (72 h, time 3 day) was 630.8 x10_4/ul, the Ret (72 h, time 3 day) was 8% and the WBC (72 h, time 3 day) was 91.1 x10_2/uL. The KIDNEY_L (72 h, time 3 day) was 0.9 g, the KIDNEY_R (72 h, time 3 day) was 0.9 g and the KIDNEY_TOTAL (72 h, time 3 day) was 1.8 g. It also gave an LIVER (72 h, time 3 day) of 9.6 g, an A/G (72 h, time 3 day) of 1.2 and an ALP (72 h, time 3 day) of 1684.4 IU/L. For the same compound, the ALT (72 h, time 3 day) was 44.2 IU/L, the AST (72 h, time 3 day) was 69.2 IU/L and the BUN (72 h, time 3 day) was 16.6 mg/dL. For the same compound, the CRE (72 h, time 3 day) was 0.1 mg/dL, the Ca (72 h, time 3 day) was 11.2 mg/dL and the Cl (72 h, time 3 day) was 105.8 meq/L. For the same compound, the DBIL (72 h, time 3 day) was 0 mg/dL, the GLC (72 h, time 3 day) was 194.4 mg/dL and the IP (72 h, time 3 day) was 7.2 mg/dL. It also gave a K (72 h, time 3 day) of 3.9 meq/L, an LDH (72 h, time 3 day) of 220.4 IU/L and a Na (72 h, time 3 day) of 144 meq/L. For the same compound, the PL (72 h, time 3 day) was 157.8 mg/dL, the RALB (72 h, time 3 day) was 3 g/dL and the TBIL (72 h, time 3 day) was 0.006 mg/dL. It also gave a TC (72 h, time 3 day) of 79.8 mg/dL, a TG (72 h, time 3 day) of 115.6 mg/dL and a TP (72 h, time 3 day) of 5.5 g/dL. The gamma-GTP (72 h, time 3 day) was 1 IU/L, the TERMINAL_BW ([…], time 7 day) was 246.2 g and the TERMINAL_BW ([…], time 14 day) was 269.5 g. The TERMINAL_BW ([…], time 28 day) was 356.1 g, the APTT ([…], time 7 day) was 21.9 s and the Bas ([…], time 7 day) was 0%. It also gave an Eos ([…], time 7 day) of 0.8%, a Fbg ([…], time 7 day) of 327.8 mg/dL and a Hb ([…], time 7 day) of 13.8 g/dL. For the same compound, the Ht ([…], time 7 day) was 39.8%, the Lym ([…], time 7 day) was 77.4% and the MCH ([…], time 7 day) was 21.9 pg. The MCHC ([…], time 7 day) was 34.7%, the MCV ([…], time 7 day) was 63 fL and the Mono ([…], time 7 day) was 2.4%. For the same compound, the Neu ([…], time 7 day) was 18.2%, the PT ([…], time 7 day) was 15.8 s and the Plat ([…], time 7 day) was 123.7 x10_4/uL. For the same compound, the RBC ([…], time 7 day) was 631.4 x10_4/ul, the Ret ([…], time 7 day) was 6.8% and the WBC ([…], time 7 day) was 129.6 x10_2/uL. The APTT ([…], time 14 day) was 22.4 s, the Bas ([…], time 14 day) was 0% and the Eos ([…], time 14 day) was 0.8%. For the same compound, the Fbg ([…], time 14 day) was 309 mg/dL, the Hb ([…], time 14 day) was 14.9 g/dL and the Ht ([…], time 14 day) was 41.2%. It also gave a Lym ([…], time 14 day) of 87%, an MCH ([…], time 14 day) of 21.4 pg and an MCHC ([…], time 14 day) of 36.1%. The MCV ([…], time 14 day) was 59.4 fL, the Mono ([…], time 14 day) was 1.4% and the Neu ([…], time 14 day) was 10%. For the same compound, the PT ([…], time 14 day) was 16.9 s, the Plat ([…], time 14 day) was 103.8 x10_4/uL and the RBC ([…], time 14 day) was 694.4 x10_4/ul. The Ret ([…], time 14 day) was 4%, the WBC ([…], time 14 day) was 113.3 x10_2/uL and the APTT ([…], time 28 day) was 23.7 s. The Bas ([…], time 28 day) was 0%, the Eos ([…], time 28 day) was 1% and the Fbg ([…], time 28 day) was 314.8 mg/dL. The Hb ([…], time 28 day) was 15.3 g/dL, the Ht ([…], time 28 day) was 44.8% and the Lym ([…], time 28 day) was 84.8%. The MCH ([…], time 28 day) was 19.6 pg, the MCHC ([…], time 28 day) was 34.3% and the MCV ([…], time 28 day) was 57.1 fL. For the same compound, the Mono ([…], time 28 day) was 1.4%, the Neu ([…], time 28 day) was 12% and the PT ([…], time 28 day) was 17.1 s. It also gave a Plat ([…], time 28 day) of 109.1 x10_4/uL, an RBC ([…], time 28 day) of 784 x10_4/ul and a Ret ([…], time 28 day) of 2.7%. It also gave a WBC ([…], time 28 day) of 122.9 x10_2/uL, a KIDNEY_L ([…], time 7 day) of 1 g and a KIDNEY_R ([…], time 7 day) of 1.1 g. It also gave a KIDNEY_TOTAL ([…], time 7 day) of 2.1 g, a KIDNEY_L ([…], time 14 day) of 1.1 g and a KIDNEY_R ([…], time 14 day) of 1.1 g. For the same compound, the KIDNEY_TOTAL ([…], time 14 day) was 2.2 g, the KIDNEY_L ([…], time 28 day) was 1.2 g and the KIDNEY_R ([…], time 28 day) was 1.2 g. It also gave a KIDNEY_TOTAL ([…], time 28 day) of 2.4 g, an LIVER ([…], time 7 day) of 11.4 g and an LIVER ([…], time 14 day) of 11.7 g. For the same compound, the LIVER ([…], time 28 day) was 14.3 g, the A/G ([…], time 7 day) was 1.2 and the ALP ([…], time 7 day) was 1579.8 IU/L. The ALT ([…], time 7 day) was 42.4 IU/L, the AST ([…], time 7 day) was 72 IU/L and the BUN ([…], time 7 day) was 20.2 mg/dL. For the same compound, the CRE ([…], time 7 day) was 0.2 mg/dL, the Ca ([…], time 7 day) was 10.8 mg/dL and the Cl ([…], time 7 day) was 107.2 meq/L. The DBIL ([…], time 7 day) was 0 mg/dL, the GLC ([…], time 7 day) was 201.4 mg/dL and the IP ([…], time 7 day) was 6.6 mg/dL. The K ([…], time 7 day) was 4.3 meq/L, the LDH ([…], time 7 day) was 194.8 IU/L and the Na ([…], time 7 day) was 143.2 meq/L. It also gave a PL ([…], time 7 day) of 156.6 mg/dL, an RALB ([…], time 7 day) of 3 g/dL and a TBIL ([…], time 7 day) of 0.004 mg/dL. It also gave a TC ([…], time 7 day) of 80 mg/dL, a TG ([…], time 7 day) of 118.4 mg/dL and a TP ([…], time 7 day) of 5.5 g/dL. It also gave a gamma-GTP ([…], time 7 day) of 1.2 IU/L, an A/G ([…], time 14 day) of 1.1 and an ALP ([…], time 14 day) of 1520.8 IU/L. For the same compound, the ALT ([…], time 14 day) was 35.6 IU/L, the AST ([…], time 14 day) was 66.8 IU/L and the BUN ([…], time 14 day) was 17.8 mg/dL. For the same compound, the CRE ([…], time 14 day) was 0.2 mg/dL, the Ca ([…], time 14 day) was 10.4 mg/dL and the Cl ([…], time 14 day) was 107 meq/L. For the same compound, the DBIL ([…], time 14 day) was 0 mg/dL, the GLC ([…], time 14 day) was 178.2 mg/dL and the IP ([…], time 14 day) was 6.5 mg/dL. For the same compound, the K ([…], time 14 day) was 4.3 meq/L, the LDH ([…], time 14 day) was 153.2 IU/L and the Na ([…], time 14 day) was 143.6 meq/L. The PL ([…], time 14 day) was 135.6 mg/dL, the RALB ([…], time 14 day) was 3 g/dL and the TBIL ([…], time 14 day) was 0.004 mg/dL. The TC ([…], time 14 day) was 63.4 mg/dL, the TG ([…], time 14 day) was 146.2 mg/dL and the TP ([…], time 14 day) was 5.8 g/dL. It also gave a gamma-GTP ([…], time 14 day) of 1.2 IU/L, an A/G ([…], time 28 day) of 1.1 and an ALP ([…], time 28 day) of 1240.4 IU/L. The ALT ([…], time 28 day) was 44.8 IU/L, the AST ([…], time 28 day) was 71.6 IU/L and the BUN ([…], time 28 day) was 18.6 mg/dL. It also gave a CRE ([…], time 28 day) of 0.2 mg/dL, a Ca ([…], time 28 day) of 10.3 mg/dL and a Cl ([…], time 28 day) of 106.6 meq/L. The DBIL ([…], time 28 day) was 0 mg/dL, the GLC ([…], time 28 day) was 202.4 mg/dL and the IP ([…], time 28 day) was 5.5 mg/dL. It also gave a K ([…], time 28 day) of 3.7 meq/L, an LDH ([…], time 28 day) of 175.2 IU/L and a Na ([…], time 28 day) of 141.4 meq/L. For the same compound, the PL ([…], time 28 day) was 145.8 mg/dL, the RALB ([…], time 28 day) was 3.1 g/dL and the TBIL ([…], time 28 day) was 0.01 mg/dL. It also gave a TC ([…], time 28 day) of 66 mg/dL, a TG ([…], time 28 day) of 159.8 mg/dL and a TP ([…], time 28 day) of 6 g/dL. It also gave a gamma-GTP ([…], time 28 day) of 1 IU/L.
